Results on three molecules are retold here after publication PMC10779102, “Structural Studies of Klebsiella pneumoniae Fosfomycin-Resistance Protein and Its Application for the Development of an Optical Biosensor for Fosfomycin Determination” (International Journal of Molecular Sciences, 2023).

The target in data set [1] is T1, FosAPA (Pseudomonas aeruginosa, UniProt Q9I4K6).
T1 construct: gene fosA
Briefly: DTNB ([…] nm) assay of GSH conjugation, time course. The class given is biochemical. To be noted: 10 mM Fos, 15 mM GSH, 0.1 M sodium phosphate pH 8, 100 mM KCl, 0.05 mM MnCl2, 25 °C.

Data set [2] deals with T2, FosAKP (Klebsiella pneumoniae, UniProt A0A086IRG1).
T2 construct: gene fosA
Briefly: DTNB ([…] nm) activity assay; crystal structure of complex ([…] Å). The note with it: read-out: % inhibition at 5 mM. The class given is biochemical.

For data set [3], the system named is C[C@@H]1O[C@@H]1P(=O)(O)O. Briefly: purified protein. The note with it: free enzyme, 15 mM GSH, 0.1 M sodium phosphate pH 8, 100 mM KCl, 0.05 mM MnCl2, 25 °C, also bound in active site of crystal structure. The class given is biochemical, Klebsiella pneumoniae.

T2 sequence (A0A086IRG1 entry or part of it): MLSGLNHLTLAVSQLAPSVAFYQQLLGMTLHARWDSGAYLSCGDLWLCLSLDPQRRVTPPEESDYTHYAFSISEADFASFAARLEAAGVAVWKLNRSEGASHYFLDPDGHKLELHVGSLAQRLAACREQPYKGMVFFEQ
T1 sequence (Q9I4K6 whole entry): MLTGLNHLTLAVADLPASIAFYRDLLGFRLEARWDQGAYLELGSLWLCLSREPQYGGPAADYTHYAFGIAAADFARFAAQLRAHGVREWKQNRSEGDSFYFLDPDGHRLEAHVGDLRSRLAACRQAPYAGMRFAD

As for `C[C@@H]1O[C@@H]1P(=O)(O)O` [Fosfomycin, (1R,2S)-epoxypropylphosphonic acid], the “DTNB (412 nm) assay of GSH conjugation, time course” value in data set [1] is “time course of Fos conjugation with GSH, catalyzed by FosAPA and FosAKP”.

As for `O=C(O)C(O)C(O)C(=O)O` (stereo not drawn) [Tar], the inhibition at 5000 µM in data set [2] is 20.7%.

In the case of FosAKP (Klebsiella pneumoniae), in data set [3], the Km is 2200 ± 300 µM.

The inhibition is the change of the read-out against control, counted positive when it falls. What is called Km is the substrate concentration at which the rate is half of its maximum.
